According to US20130078224A1, “INDUCTION/MONITORING OF ARTERIOGENESIS USING SDF1 AND PDGFB OR INHIBITION OF PHD2” (LIFE SCIENCES RESEARCH PARTNERS VZW, priority 2010, published 2013):

Columns and labels:
[1] = early clinical trials in myocardial infarction; cited from earlier work
NF-κB [2] = test: NF-κB-responsive firefly luciferase reporter assay in bone marrow-derived macrophages; format: cell-based, mice; settings: PHD2 haplodeficient vs WT macrophages
Method: Transduction and Transfection of Bone Marrow-Derived Macrophages and Lung Endothelial Cells: To express an inducible NF-κB responsive firefly luciferase reporter, commercially available lentiviral vector particles (LV) were used (Cignal Lenti NF-κB Reporter; SABiosciences). 2.5×10^5 bone marrow-derived macrophages and 10^5 primary lung endothelial cells (isolated as previously described (Mazzone et al., 2009, see above)) were seeded in a 24-well plate in DMEM 10% FBS or M199 20% FBS for eight hours. Cells were transduced with 10^8 TU/ml. Eight hours after transduction, the medium wash was replaced. After 48 hours, cells were stimulated with TNFα (20 ng/mL) for eight hours and the same amount of protein extract was read in a luminometer. For PHD3 silencing, siRNA oligonucleotides were designed using the Invitrogen online siRNA design tool (world wide web at maidesigner.invitrogen.com). The following sequences (sense strands) and target positions were used: PHD3 siRNA: 5′-[…]-3′ (SEQ ID NO:1); scramble siRNA:5′-[…]-3′ (SEQ ID NO:2). In brief, one day after the transduction of macrophages with LV, cells were transfected using Lipofectamine 2000 (Invitrogen) according to the manufacturer's instructions. Preparation of the oligonucleotide-Lipofectamine 2000 complexes was done as followed: 25 pmol siRNA oligonucleotide (stock: 20 μM) was diluted in 50 μl Opti-MEM I reduced serum medium. Lipofectamine 2000 (1.5 μl) was diluted in 50 μl Opti-MEM I reduced serum medium and incubated for five minutes at room temperature. siRNA oligonucleotides were gently mixed with Lipofectamine 2000 and allowed to incubate at room temperature for twenty minutes to form complexes. Just before transfection, the cell culture medium was removed and cells were rinsed twice with serum-free Opti-MEM I medium. The Lipofectamine 2000-siRNA oligonucleotide complexes were added to each well in 400 μl of serum-free Opti-MEM medium for five hours. Afterwards, cells were incubated in complete medium for 48 hours at 37° C. in a CO2 incubator and assayed for gene knockdown (qRT-PCR) and luciferase activity. To assess if the increased NFkB activity observed in PHD2^+/− macrophages was dependent on the hydroxylase activity of PHD2, 48 hours before transduction, 4×10^6 bone marrow-derived macrophages were resuspended in 240 μl of Opti-MEM and were electroporated (250 V, 950 uF, ∝ Ω) with 7 μg of plasmids expressing a wild-type PHD2 (PHD2^wt) or a PHD2 containing a mutation at the catalytic site (PHD2^H313A).

NF-κB [3] = test: NF-κB-responsive luciferase reporter assay in primary lung endothelial cells; format: cell-based, mice; settings: WT and PHD2+/- ECs, TNF-α 20 ng/mL, eight hours
Method: Transduction and Transfection of Bone Marrow-Derived Macrophages and Lung Endothelial Cells: To express an inducible NF-κB responsive firefly luciferase reporter, commercially available lentiviral vector particles (LV) were used (Cignal Lenti NF-κB Reporter; SABiosciences). 2.5×10^5 bone marrow-derived macrophages and 10^5 primary lung endothelial cells (isolated as previously described (Mazzone et al., 2009, see above)) were seeded in a 24-well plate in DMEM 10% FBS or M199 20% FBS for eight hours. Cells were transduced with 10^8 TU/ml. Eight hours after transduction, the medium wash was replaced. After 48 hours, cells were stimulated with TNFα (20 ng/mL) for eight hours and the same amount of protein extract was read in a luminometer. For PHD3 silencing, siRNA oligonucleotides were designed using the Invitrogen online siRNA design tool (world wide web at maidesigner.invitrogen.com). The following sequences (sense strands) and target positions were used: PHD3 siRNA: 5′-[…]-3′ (SEQ ID NO:1); scramble siRNA:5′-[…]-3′ (SEQ ID NO:2). In brief, one day after the transduction of macrophages with LV, cells were transfected using Lipofectamine 2000 (Invitrogen) according to the manufacturer's instructions. Preparation of the oligonucleotide-Lipofectamine 2000 complexes was done as followed: 25 pmol siRNA oligonucleotide (stock: 20 μM) was diluted in 50 μl Opti-MEM I reduced serum medium. […]

| Molecule | mortality due to left ventricle rupture [1] | TNF-α-induced NF-κB activation (NF-κB [2]) | NF-κB activity (NF-κB [3]) |
| --- | --- | --- | --- |
| C[C@H]1C[C@@H]2[C@H]([C@@H](O)C[C@@]3(C)[C@H]2CC[C@]3(O)C(=O)CO)[C@@]2(C)C=CC(=O)C=C12 [methylprednisolone] | drastically increased mortality | – | – |
| TNF-α | – | significantly stronger | increases to the same level |
